Assay results as given in patent publication US20230295130A1, “COMPOUND USEFUL AS CDK7 KINASE INHIBITOR AND USE THEREOF” (TYK MEDICINES, INC., priority 2020, published 2023).

Key:
Assay in all cases: Enzyme activity test, mobility shift assay (Table 1)
Type in all cases: biochemical
[1] = target: CDK12 (aa686-1082)/Cyclin K (Homo sapiens (Human), UniProt Q9NYV4); conditions: 2 mM ATP; read-out: CDK12 kinase IC50
Procedure: (§1) The compound powder was dissolved in 100% DMSO to prepare a 10 mM storage solution. The storage solution was further diluted to 0.5 mM as the initial concentration, and continuously diluted 3 times to obtain 10 compound solutions with different concentrations. The compound and enzyme were pre-incubated for 0 minutes and 60 minutes, respectively, using duplicate detection. Compound Staurosporine having a structural formula of
(§2) was used as a positive control, and Mobility shift assay method was used to detect CDK kinase (such as CDK7, CDK9, CDK12 and CDK2) activity of the compounds.

[2] = target: CDK7/Cyclin H/MAT1 kinase (Homo sapiens (Human), UniProt P50613); conditions: 2 mM ATP; pre-incubated 0 and 60 minutes
Procedure: IC50 values of the compounds for CDK7 kinase were detected in Wuxi Biortus Biosciences Co. Ltd.
as §1, with “detection.” for “detection. Compound Staurosporine having a structural formula of”
as §2

CDK9/Cyclin Tl = CDK9/Cyclin Tl (Homo sapiens (Human), UniProt P50750); conditions: 2 mM ATP; read-out: CDK9 kinase IC50
Procedure: as §1, with “detection.” for “detection. Compound Staurosporine having a structural formula of”
as §2

CDK2/Cyclin El = CDK2/Cyclin El (Homo sapiens (Human), UniProt P24941); conditions: 2 mM ATP; read-out: CDK2 kinase IC50
Procedure: as §1, with “detection.” for “detection. Compound Staurosporine having a structural formula of”
as §2

Sequence of CDK7/Cyclin H/MAT1 kinase (P50613 whole entry): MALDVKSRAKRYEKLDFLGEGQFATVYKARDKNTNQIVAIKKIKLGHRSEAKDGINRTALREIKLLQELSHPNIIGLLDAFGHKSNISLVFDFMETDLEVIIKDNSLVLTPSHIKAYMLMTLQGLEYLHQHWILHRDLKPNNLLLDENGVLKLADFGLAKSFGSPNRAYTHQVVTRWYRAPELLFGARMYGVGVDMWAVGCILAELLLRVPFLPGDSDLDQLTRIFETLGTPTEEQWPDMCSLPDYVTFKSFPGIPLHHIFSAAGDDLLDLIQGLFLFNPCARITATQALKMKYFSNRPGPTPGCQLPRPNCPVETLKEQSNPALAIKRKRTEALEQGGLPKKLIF
Sequence of CDK7/Cyclin H/MAT1 kinase (P51946 whole entry partner): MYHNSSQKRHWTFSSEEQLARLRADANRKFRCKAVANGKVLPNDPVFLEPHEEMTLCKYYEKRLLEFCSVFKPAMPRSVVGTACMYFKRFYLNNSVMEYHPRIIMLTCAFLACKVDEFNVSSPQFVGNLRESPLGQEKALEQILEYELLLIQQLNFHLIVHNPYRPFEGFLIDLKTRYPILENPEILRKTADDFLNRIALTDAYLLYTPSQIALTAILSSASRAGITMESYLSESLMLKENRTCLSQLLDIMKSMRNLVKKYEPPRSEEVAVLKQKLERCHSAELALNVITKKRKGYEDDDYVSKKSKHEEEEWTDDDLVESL
Sequence of CDK7/Cyclin H/MAT1 kinase (P51948 whole entry partner): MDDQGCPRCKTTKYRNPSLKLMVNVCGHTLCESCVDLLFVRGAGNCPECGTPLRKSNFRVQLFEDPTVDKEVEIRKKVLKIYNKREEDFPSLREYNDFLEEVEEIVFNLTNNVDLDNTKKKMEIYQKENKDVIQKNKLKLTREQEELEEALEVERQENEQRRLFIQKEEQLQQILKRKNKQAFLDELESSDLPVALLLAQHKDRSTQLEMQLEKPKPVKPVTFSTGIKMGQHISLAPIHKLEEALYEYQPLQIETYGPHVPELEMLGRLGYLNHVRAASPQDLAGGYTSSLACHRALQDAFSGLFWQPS
Sequence of CDK9/Cyclin Tl (P50750 whole entry): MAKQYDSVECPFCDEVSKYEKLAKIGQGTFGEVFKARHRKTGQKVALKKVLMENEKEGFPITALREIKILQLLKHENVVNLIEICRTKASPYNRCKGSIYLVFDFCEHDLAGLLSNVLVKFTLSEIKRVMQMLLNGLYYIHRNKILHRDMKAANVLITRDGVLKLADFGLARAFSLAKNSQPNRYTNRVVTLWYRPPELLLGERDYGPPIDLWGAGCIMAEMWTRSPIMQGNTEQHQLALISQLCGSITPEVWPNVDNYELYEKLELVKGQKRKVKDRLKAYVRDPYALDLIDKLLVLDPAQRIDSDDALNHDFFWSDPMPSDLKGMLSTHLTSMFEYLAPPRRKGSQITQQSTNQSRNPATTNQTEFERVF
Sequence of CDK9/Cyclin Tl (O60563 whole entry partner): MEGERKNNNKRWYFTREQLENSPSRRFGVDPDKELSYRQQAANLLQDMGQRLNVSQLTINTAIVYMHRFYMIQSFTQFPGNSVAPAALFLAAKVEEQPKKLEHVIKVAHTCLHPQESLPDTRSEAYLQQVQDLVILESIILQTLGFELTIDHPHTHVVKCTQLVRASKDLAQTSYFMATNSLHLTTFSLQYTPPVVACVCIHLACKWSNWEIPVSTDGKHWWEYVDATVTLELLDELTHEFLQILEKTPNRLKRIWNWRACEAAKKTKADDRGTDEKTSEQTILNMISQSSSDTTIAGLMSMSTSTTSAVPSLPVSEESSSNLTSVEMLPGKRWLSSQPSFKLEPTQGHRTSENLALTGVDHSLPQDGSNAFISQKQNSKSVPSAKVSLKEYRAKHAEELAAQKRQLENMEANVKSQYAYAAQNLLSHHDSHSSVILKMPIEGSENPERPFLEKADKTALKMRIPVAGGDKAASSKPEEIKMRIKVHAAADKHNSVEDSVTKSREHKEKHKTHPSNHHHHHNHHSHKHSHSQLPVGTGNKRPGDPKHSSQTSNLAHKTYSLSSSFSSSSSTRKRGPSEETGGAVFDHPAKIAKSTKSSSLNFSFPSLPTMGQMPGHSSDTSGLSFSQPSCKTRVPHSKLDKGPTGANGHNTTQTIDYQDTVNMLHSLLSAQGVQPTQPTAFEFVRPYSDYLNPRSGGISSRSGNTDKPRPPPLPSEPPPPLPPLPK
Sequence of CDK12 (aa686-1082)/Cyclin K (Q9NYV4 686-1082): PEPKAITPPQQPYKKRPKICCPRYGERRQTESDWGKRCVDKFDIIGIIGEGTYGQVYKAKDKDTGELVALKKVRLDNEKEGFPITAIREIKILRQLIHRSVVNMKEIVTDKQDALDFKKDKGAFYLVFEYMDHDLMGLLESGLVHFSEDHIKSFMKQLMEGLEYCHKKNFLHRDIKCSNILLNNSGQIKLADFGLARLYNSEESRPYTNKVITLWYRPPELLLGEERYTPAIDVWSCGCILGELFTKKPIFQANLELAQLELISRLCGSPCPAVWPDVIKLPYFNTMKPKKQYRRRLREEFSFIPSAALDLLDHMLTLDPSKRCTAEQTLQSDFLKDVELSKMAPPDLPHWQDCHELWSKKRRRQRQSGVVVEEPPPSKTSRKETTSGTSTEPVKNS
Sequence of CDK12 (aa686-1082)/Cyclin K (O75909 whole entry partner, the tested form may be a part): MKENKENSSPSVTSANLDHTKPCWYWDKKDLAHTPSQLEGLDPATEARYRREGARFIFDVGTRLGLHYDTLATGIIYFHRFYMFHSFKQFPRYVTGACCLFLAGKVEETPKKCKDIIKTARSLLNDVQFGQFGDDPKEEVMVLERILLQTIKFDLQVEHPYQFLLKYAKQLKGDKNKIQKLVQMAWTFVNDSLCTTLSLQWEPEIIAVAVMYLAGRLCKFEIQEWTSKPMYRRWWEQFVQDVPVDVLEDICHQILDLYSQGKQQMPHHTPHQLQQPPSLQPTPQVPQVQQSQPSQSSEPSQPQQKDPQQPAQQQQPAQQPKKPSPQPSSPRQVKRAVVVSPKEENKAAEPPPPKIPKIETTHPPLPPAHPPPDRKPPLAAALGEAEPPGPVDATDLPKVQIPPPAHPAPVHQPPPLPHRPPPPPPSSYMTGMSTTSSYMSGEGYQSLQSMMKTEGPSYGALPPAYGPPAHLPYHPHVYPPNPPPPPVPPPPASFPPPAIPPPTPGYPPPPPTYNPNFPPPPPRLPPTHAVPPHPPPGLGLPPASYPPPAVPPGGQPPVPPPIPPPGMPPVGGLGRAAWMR

SMILES	IC50 [1] [nM]	IC50 [2] [nM]	IC50 (CDK9/Cyclin Tl) [nM]	IC50 (CDK2/Cyclin El) [nM]
O=C1CCCCN1c1ccc2c(-c3nc(N[C@H]4CCCNC4)ncc3C(F)(F)F)c[nH]c2c1Br [Example T-03]	> 500	< 50	> 500	> 500
O=C1CCCN1c1ccc2c(-c3nc(N[C@H]4CCCNC4)ncc3C(F)(F)F)c[nH]c2c1Br [Example T-04]	> 500	< 50	> 500	> 500
CN1CCC[C@H](Nc2ncc(C(F)(F)F)c(-c3c[nH]c4cc(N5CCCC5=O)ccc34)n2)C1 [Example T-05]	> 500	< 50	> 500	> 500
O=C1OCCCN1c1ccc2c(-c3nc(N[C@H]4CCCNC4)ncc3C(F)(F)F)c[nH]c2c1Br [Example T-06]	> 500	< 50	> 500	> 500
CC1(C)COC(Nc2ccc3c(-c4nc(N[C@H]5CCCNC5)ncc4C(F)(F)F)c[nH]c3c2Br)=N1 [Example T-07]	> 500	< 50	> 500	> 500
O=C1OCCN1c1ccc2c(-c3nc(N[C@H]4CCCNC4)ncc3C(F)(F)F)c[nH]c2c1Br [Example T-12]	> 500	< 50	> 500	> 500
O=C1CCN1c1ccc2c(-c3nc(N[C@H]4CCCNC4)ncc3C(F)(F)F)c[nH]c2c1Br [Example T-18]	> 500	< 50	> 500	> 500
COC(=O)Nc1ccc2c(-c3nc(NC4CC5(CNC5)C4)ncc3C(F)(F)F)c[nH]c2c1Br [Example T-19]	> 500	< 50	> 500	> 500
COC(=O)Nc1ccc2c(-c3nc(N[C@H]4CCC[C@H](N)C4)ncc3C(F)(F)F)c[nH]c2c1Br [Example T-20]	> 500	50 to 500	> 500	> 500
COC(=O)Nc1ccc2c(-c3nc(N[C@H]4CCC[C@@H](N)C4)ncc3C(F)(F)F)c[nH]c2c1Br [Example T-21]	> 500	50 to 500	> 500	> 500
COC(=O)Nc1ccc2c(-c3nc(N[C@@H]4CCC[C@H](N)C4)ncc3C(F)(F)F)c[nH]c2c1Br [Example T-22]	> 500	50 to 500	> 500	> 500
COC(=O)Nc1ccc2c(-c3nc(N[C@@H]4CCC[C@@H](N)C4)ncc3C(F)(F)F)c[nH]c2c1Br [Example T-23]	> 500	50 to 500	> 500	> 500
COC(=O)Nc1ccc2c(-c3nc(N[C@H]4[C@@H]5CNC[C@@H]54)ncc3C(F)(F)F)c[nH]c2c1Br [Example T-24]	> 500	< 50	> 500	> 500
COC(=O)Nc1ccc2c(-c3nc(N[C@@H]4[C@@H]5CNC[C@@H]54)ncc3C(F)(F)F)c[nH]c2c1Br [Example T-25]	> 500	50 to 500	> 500	> 500
COC(=O)Nc1ccc2c(-c3nc(NC4C5CCNC54)ncc3C(F)(F)F)c[nH]c2c1Br (centres unmarked) [Example T-26]	> 500	50 to 500	> 500	> 500
COC(=O)Nc1ccc2c(-c3nc(NC4CC5CNCC5C4)ncc3C(F)(F)F)c[nH]c2c1Br (centres unmarked) [Example T-28]	> 500	50 to 500	> 500	> 500
COC(=O)Nc1ccc2c(-c3nc(NC4CC5(CC(N)C5)C4)ncc3C(F)(F)F)c[nH]c2c1Br (centres unmarked) [Example T-31]	> 500	< 50	> 500	> 500
COC(=O)Nc1ccc2c(-c3nc(N[C@H]4CCC(C)(C)NC4)ncc3C(F)(F)F)c[nH]c2c1C(F)(F)F [Example T-35]	> 500	< 50	> 500	> 500
CCOC(=O)Nc1ccc2c(-c3nc(N[C@@H]4CNCC(C)(C)C4)ncc3C(F)(F)F)c[nH]c2c1Br [Example T-43]	> 500	< 50	> 500	> 500
COC(=O)Nc1ccc2c(-c3nc(N[C@H]4CCC(C)(C)NC4)ncc3C(F)(F)F)c[nH]c2c1S(=O)(=O)C(C)C [Example T-64]	> 500	< 50	> 500	> 500
COC(=O)Nc1ccc2c(-c3nc(N[C@H]4CCC[C@@H]4N)ncc3C(F)(F)F)c[nH]c2c1Br [Example T-67]	> 500	< 50	> 500	> 500
COC(=O)Nc1ccc2c(-c3nc(N[C@H]4CCCNC4)ncc3Br)c[nH]c2c1Br [Example T-75]	> 500	< 50	> 500	> 500
CCOC(=O)Nc1ccc2c(-c3nc(N[C@H]4CCC(C)(C)NC4)ncc3C(F)(F)F)c[nH]c2c1Cl [Example T-82]	> 500	< 50	> 500	> 500

Next, values leading:

IC50 [1] [nM]	IC50 [2] [nM]	IC50 (CDK9/Cyclin Tl) [nM]	IC50 (CDK2/Cyclin El) [nM]	SMILES
> 500	< 50	> 500	> 500	O=C(Nc1ccc2c(-c3nc(N[C@H]4CCCNC4)ncc3C(F)(F)F)c[nH]c2c1Br)C1CC1 [Example T-08]
> 500	< 50	> 500	> 500	CC(=O)Nc1ccc2c(-c3nc(N[C@H]4CCCNC4)ncc3C(F)(F)F)c[nH]c2c1Br [Example T-09]
> 500	< 50	> 500	> 500	CC(=O)Nc1ccc2c(-c3nc(N[C@H]4CCCNC4)ncc3C(F)(F)F)c[nH]c2c1 [Example T-10]
> 500	< 50	> 500	> 500	O=C(Nc1ccc2c(-c3nc(N[C@H]4CCCNC4)ncc3C(F)(F)F)c[nH]c2c1)C1CC1 [Example T-11]
> 500	< 50	> 500	> 500	O=C1CCCN1c1ccc2c(-c3nc(N[C@H]4CCCNC4)ncc3C(F)(F)F)c[nH]c2c1 [Example T-13]
> 500	< 50	> 500	> 500	COC(=O)Nc1ccc2c(-c3nc(N[C@H]4CCCNC4)ncc3C(F)(F)F)c[nH]c2c1P(C)(C)=O [Example T-14]
> 500	< 50	> 500	> 500	CC(=O)Nc1ccc2c(-c3nc(N[C@H]4CCCNC4)ncc3C(F)(F)F)c[nH]c2c1P(C)(C)=O [Example T-15]
> 500	< 50	> 500	> 500	COC(=O)Nc1ccc2c(-c3nc(N[C@H]4CCCNC4)ncc3C(F)(F)F)c[nH]c2c1 [Example T-16]
> 500	< 50	> 500	> 500	COC(=O)Nc1ccc2c(-c3nc(N[C@H]4CCCNC4)ncc3C(F)(F)F)c[nH]c2c1C#N [Example T-27]
> 500	> 500	> 500	> 500	COC(=O)Nc1ccc2c(-c3nc(N[C@H]4CCC[C@@H](O)C4)ncc3C(F)(F)F)c[nH]c2c1Br [Example T-29]
> 500	< 50	> 500	> 500	CC(C)OC(=O)Nc1ccc2c(-c3nc(N[C@H]4CCCNC4)ncc3C(F)(F)F)c[nH]c2c1Br [Example T-44]
> 500	< 50	> 500	> 500	COC(=O)Nc1ccc2c(-c3nc(N[C@H]4CCCNC4)ncc3C(F)(F)F)c[nH]c2c1-c1ccccc1 [Example T-60]
> 500	< 50	> 500	> 500	COC(=O)Nc1ccc2c(-c3nc(N[C@H]4CCCNC4)ncc3C(F)(F)F)c[nH]c2c1S(=O)(=O)C(C)C [Example T-63]
> 500	< 50	> 500	> 500	COC(=O)Nc1ccc2c(-c3nc(N[C@H]4CCCNC4)ncc3C(F)(F)F)c[nH]c2c1[S+]([O-])C(C)C (some centres unmarked) [Example T-65]
> 500	< 50	> 500	> 500	COC(=O)Nc1ccc2c(-c3nc(N[C@H]4CCCNC4)ncc3C(F)(F)F)c[nH]c2c1SC(C)C [Example T-66]
> 500	< 50	> 500	> 500	COC(=O)Nc1ccc2c(-c3nc(N[C@H]4CCCNC4)ncc3C(F)(F)F)c[nH]c2c1-c1cnn(C)c1 [Example T-68]
> 500	< 50	> 500	> 500	COC(=O)Nc1ccc2c(-c3nc(N[C@H]4CCCNC4)ncc3C(F)(F)F)c[nH]c2c1C(C)C [Example T-69]
> 500	< 50	> 500	> 500	COC(=O)Nc1ccc2c(-c3nc(N[C@H]4CCC(C)(C)NC4)ncc3C(F)(F)F)c[nH]c2c1Cl [Example T-80]
